In the supplement of paper PMC10307832:

How the values were obtained:
Assay in all cases: relative viability (nuclei count vs DMSO), 5 days (fraction); higher = more cells survive
Tivantinib + Palbociclib = compound: O=C1NC(=O)[C@@H](c2cn3c4c(cccc24)CCC3)[C@@H]1c1c[nH]c2ccccc12 [Tivantinib] + CC(=O)c1c(C)c2cnc(Nc3ccc(N4CCNCC4)cn3)nc2n(C2CCCC2)c1=O [Palbociclib] (partner 0.5 µM)
Outline: (§1)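 Relative viability was taken as the ratio of nuclei in treated wells to nuclei in vehicle wells. Lung cancer cell lines in 1536-well plates received compounds by pin tool one day after seeding, either one drug alone or a fixed anchor-drug dose plus five library-drug doses (not always all listed) in √10 steps. Nuclei were counted on 4× images after 5 days of treatment, and values are medians of duplicate plates.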

Tivantinib + Olaparib = compound: O=C1NC(=O)[C@@H](c2cn3c4c(cccc24)CCC3)[C@@H]1c1c[nH]c2ccccc12 [Tivantinib] + O=C(c1cc(Cc2n[nH]c(=O)c3ccccc23)ccc1F)N1CCN(C(=O)C2CC2)CC1 [Olaparib] (partner 8 µM)
Outline: as §1

Tivantinib + Pictilisib = compound: O=C1NC(=O)[C@@H](c2cn3c4c(cccc24)CCC3)[C@@H]1c1c[nH]c2ccccc12 [Tivantinib] + CS(=O)(=O)N1CCN(Cc2cc3nc(-c4cccc5[nH]ncc45)nc(N4CCOCC4)c3s2)CC1 [Pictilisib] (partner 1 µM)
Outline: as §1

Crenolanib + Palbociclib = compound: CC1(COc2ccc3c(c2)ncn3-c2ccc3cccc(N4CCC(N)CC4)c3n2)COC1 [Crenolanib] + CC(=O)c1c(C)c2cnc(Nc3ccc(N4CCNCC4)cn3)nc2n(C2CCCC2)c1=O [Palbociclib] (partner 0.5 µM)
Outline: as §1

Cell Line	relative viability (Tivantinib + Palbociclib; first compound 0.01 µM)	relative viability (Tivantinib + Palbociclib; first compound 0.03162 µM)	relative viability (Tivantinib + Palbociclib; first compound 0.1 µM)	relative viability (Tivantinib + Palbociclib; first compound 0.3162 µM)	relative viability (Tivantinib + Olaparib; first compound 0.01 µM)	relative viability (Tivantinib + Olaparib; first compound 0.03162 µM)	relative viability (Tivantinib + Olaparib; first compound 0.1 µM)	relative viability (Tivantinib + Olaparib; first compound 0.3162 µM)	relative viability (Tivantinib + Pictilisib; first compound 0.01 µM)	relative viability (Tivantinib + Pictilisib; first compound 0.03162 µM)	relative viability (Tivantinib + Pictilisib; first compound 0.1 µM)	relative viability (Tivantinib + Pictilisib; first compound 0.3162 µM)	relative viability (Crenolanib + Palbociclib; first compound 0.01 µM)	relative viability (Crenolanib + Palbociclib; first compound 0.03162 µM)	relative viability (Crenolanib + Palbociclib; first compound 0.1 µM)	relative viability (Crenolanib + Palbociclib; first compound 0.3162 µM)	relative viability (Crenolanib + Palbociclib; first compound 1 µM)
NCI-H2126	0.366	0.323	0.342	0.397	0.94	0.933	0.881	0.813	0.51	0.446	0.496	0.478	0.343	0.352	0.335	0.352	0.372
NCI-H2170	0.398	0.411	0.363	–	0.558	0.658	0.507	–	0.298	0.222	0.33	–	0.384	0.432	0.38	0.422	0.417
NCI-H2228	0.895	0.794	0.652	0.602	0.43	0.815	0.678	0.587	0.405	0.345	0.458	0.413	0.758	0.866	0.629	0.92	0.815
NCI-H2347	0.399	0.472	0.422	0.381	0.556	0.593	0.583	0.552	0.986	0.724	0.514	0.525	0.458	0.453	0.395	0.435	0.481
NCI-H2405	0.565	0.584	0.486	0.536	1.02	0.895	0.868	0.867	0.509	0.43	0.381	0.4	0.584	–	0.39	0.541	0.539
NCI-H3122	0.208	0.216	0.164	0.186	0.643	0.608	0.584	0.665	0.585	0.599	0.545	0.441	0.177	0.193	0.196	0.196	0.206
PC-3 [JPC-3]	0.482	0.6	0.508	0.491	1.09	1.12	1.11	0.662	0.687	0.705	0.765	0.637	0.563	–	0.543	0.534	0.568
PC-14	0.594	0.578	0.499	0.536	0.238	0.305	0.228	0.26	0.584	0.718	0.723	0.292	0.489	0.53	0.473	0.593	0.354
RERF-LC-KJ	0.644	1.1	1.01	0.647	0.894	0.892	0.917	0.799	0.543	0.618	0.51	0.461	1.13	1.03	1.03	1.1	1.05
SK-LU-1	0.42	0.394	0.423	0.34	0.595	0.464	0.433	0.512	0.669	0.524	0.614	0.548	0.368	0.394	0.328	0.412	0.333
SK-MES-1	0.336	0.345	0.296	0.361	0.751	0.659	–	0.874	0.413	0.368	0.4	0.213	0.335	0.32	0.31	0.314	0.34
SW 1573	0.464	0.384	0.32	0.343	0.532	0.481	0.544	0.488	0.491	0.52	0.406	0.472	0.369	0.458	0.422	0.368	0.42
